Reference: patent publication US20210283211A1, “COMPOSITIONS AND METHODS OF ALLEVIATING RESISTANCE TO CHEMOTHERAPY” (CITY OF HOPE, priority 2019, published 2021)
“Also recorded” adds a separate entry of the source.

What was measured:
Type in all cases: cell-based, human
H2009 spheroids = test: 3D spheroid assay (red fluorescence viability, caspase-3/7); conditions: 300 nM, 72 hours
Description: 3D spheroid assay. 3D spheroid experiments were performed using cell lines stably transfected with NucLight Red Lentivirus (Essen Bioscience) to visualize red fluorescence as an indicator of cell viability. Cells were seeded on a 96-well ultra-low attachment plate and allowed to form spheroids overnight. Drug treatment was added as indicated along with Cytotox Green Reagent (Essen BioScience), used as a green fluorescence indicator of cell death due to loss of cell membrane integrity. To monitor cell proliferation and apoptosis over time, the plate was placed in the IncuCyte S3 Live-Cell Analysis System (Essen BioScience) and images were acquired every 2 hours. Data analysis was generated by the IncuCyte software using a red fluorescence mask to accurately measure intensity and area of red fluorescence, indicating spheroid viability and a green fluorescence mask, indicating cell death.
Confocal microscopy. […] Images were processed using ZEN software and analyzed using ImageJ (Schneider, C. A.; Rasband, W. S. & Eliceiri, K. W. (2012), “NIH Image to ImageJ: 25 years of image analysis”, Nature methods 9(7): 671-675, PMID 22930834).
To mimic conditions closer to in vivo, the effect of knocking down PXN or ITGB4 was discerned in spheroids (3D) formed from the cell lines used in 2D culture. […] The spheroid growth and survival were quantitated by monitoring dye intensity and area in real time. […]

[1] = test system: ITGB4, PXN, FAK, MET, γH2AX, cleaved PARP in H1993 cells; test: Immunoblot; conditions: 50-200 nM carfilzomib
Description: (§1) West blotting: Cell lysates were prepared with 1×RIPA buffer (MilliporeSigma) and denatured in 1× reducing sample buffer at 95° C. for 5 minutes. Protein samples (15 μg) were run on 4-15% TGX gels (Bio-Rad, Hercules, Calif., USA) and transferred onto nitrocellulose membranes (Bio-Rad). Blots were blocked with 5% non-fat milk in TBS-T for 1 hour at room temperature and probed with primary antibody diluted in 2.5% BSA in TBS-T overnight at 4° C. After three washes with TBS-T, blots were incubated with HRP-conjugated secondary antibodies for 2 hours at room temperature. After three more washes, bands of interest were visualized via chemiluminescence using Western Bright ECL HRP substrate (Advansta, Menlo Park, Calif., USA) and imaged with the ChemiDoc MP imager (Bio-Rad).
(§2) Then a sublethal dose was used to determine the effect of these compounds on ITGB4 and PXN expression and caspase activity (FIG. 9I). […] These eleven compounds were further screened in the cisplatin-resistant cell line H2009. […] Further, carfilzomib was tested in another cisplatin-resistant cell line H1993.

[2] = test system: ITGB4, PXN, FAK, p27, phospho-Rb, γH2AX, cleaved PARP in H2009 cells; test: Immunoblot; conditions: sublethal dose
Description: as §1, §2

H2009 cells = test: Scratch wound healing assay
Description: Scratch wound healing assay. Cells were seeded on a 96-well Image Lock (Essen BioScience, Ann Arbor, Mich., USA) plate to reach 90% confluence by the next day. After cell adherence, 96 uniform wounds were created simultaneously using the WoundMaker (Essen BioScience) tool. Cells were washed once with serum-free medium and replenished with complete medium. To monitor wound healing, the plate was placed in the IncuCyte S3 Live-Cell Analysis System (Essen BioScience) and images were acquired every hour. Data analysis was generated by the IncuCyte software using a set confluence mask to measure relative wound density over time.
To discern the effect of knocking down ITGB4 on cell migration, H1993 and H2009 cells were transfected with the control or ITGB4-specific siRNA in 6-well plates and 12 hours post transfection, the cells were trypsinized and reseeded at high density in a 96-well plate. […] While both cell lines transfected with the control siRNA achieved 100% confluency of the wound within 48 hours, H1993 and 2009 cells in which ITGB4 was knocked down reached ˜60% and ˜80% confluency, respectively; neither cell line reached 100% confluency even after 96 h (FIG. 3F). Next the rate of wound closure was estimated. The rate was determined by dividing initial wound width by the time taken to close the wound. […] Similarly, in the case of the H2009 cells, the wound width closure rate dropped from 22 μm/h to about 18 μm/h (FIG. 3G). […] Additionally, up regulation of expression of other integrin β forms in response to ITGB4 knockdown was checked and an increase in the expression of ITGB1, ITGB2, and ITGB3 at mRNA level was found (FIG. 3I). The effect of ITGB3 silencing in the ITGB4 knocked down cells was further tested but no significant difference in their proliferation was found (FIG. 3J).

CC(C)C[C@H](NC(=O)[C@H](CCc1ccccc1)NC(=O)CN1CCOCC1)C(=O)N[C@@H](Cc1ccccc1)C(=O)N[C@@H](CC(C)C)C(=O)[C@@]1(C)CO1 [Carfilzomib]
drop in red intensity of spheroid (H2009 spheroids): 2 fold | increase in caspase activity (H2009 spheroids): 2 fold | protein expression by immunoblot [1]: reduction in ITGB4 expression and increase in cleaved PARP and γH2AX | protein expression by immunoblot [2]: reduced ITGB4 and PXN expression; also recorded: reduced expression of ITGB4 and phospho-Rb (S807/811) and increased expression of p27, γH2AX, and cleaved PARP | wound confluency (H2009 cells; 200 nM, untreated >90%): 79% | cell migration / wound healing (H2009 cells; sublethal dose (carfilzomib 50-200 nM)): significant inhibition of wound healing and reduction in wound closure rate; also recorded: dose-dependent inhibition of cell migration
